# Measurements published in patent US20230250169A1, “AXL Inhibitors for Antiviral Therapy” (BERGENBIO ASA, priority 2020, published 2023).
# Entries after “also recorded” stand apart in the source; their conditions may differ. Read-outs that look alike come from different tables or passages of the source.
# Tests used:
# [1] = test system: VSV/SARS-CoV-2 spike pseudovirion; type: cell-based
# SARS-CoV-2 [2] = type: cell-based, Green African Monkey
# SARS-CoV-2 [3] = type: cell-based; settings: for sensitivity of SARS-CoV-2 infection to inhibitor: three of the lung tumor lines from John Minna, representative data
# SARS-CoV-2 [4] = test: Phase 2 clinical trial ACCORD-2 (UK), hospitalised COVID-19 patients
# SARS-CoV-2 [5] = type: cell-based; settings: A549-hACE2 and Vero E6 cells, 1 uM, 24 h, preliminary
# SARS-CoV-2 [6] = type: cell-based
# SARS-CoV-2 [7] = test: BGBC020 and ACCORD-2 studies taken together; type: in vivo, human; settings: across both BGBC020 and ACCORD-2 studies; SoC 10
# [8] = test system: Mouse Hepatitis Virus (MHV) strain A59; test: Mouse hepatitis virus (MHV A59) infection of murine bone marrow-derived macrophages, virus load by qRT-PCR; type: cell-based; settings: for MHV virus load in WT mBMDM: WT cells, pretreated and kept on cells
# SARS-CoV-2 [9] = test: Clinical case report: COVID-19 in a lung cancer patient on bemcentinib+erlotinib; type: in vivo
# Ebola virus = settings: one of only two of sixty compounds; cited from earlier work
# SARS-CoV-2 [10] = type: cell-based; settings: MOI=0.1, 24 h, inhibitor added prior to infection
# SARS-CoV-2 [11] = test: SARS-CoV-2 salivary viral load (quantitative PCR) in BGBC020 patients; type: in vivo
# [12] = test system: VSV/SARS-CoV-2 spike pseudovirions; type: cell-based, Green African Monkey
# SARS-CoV-2 [13] = settings: Vero E6 and CaIU3, Dittmar et al; cited from earlier work
# SARS-CoV-2 [14] = test: Phase 2 clinical trial BGBC020 (India, South Africa), hospitalised COVID-19 patients, bemcentinib plus SoC versus SoC
# SARS-CoV-2 [15] = test: SARS-CoV-2 binding on Vero E6 cells (qRT-PCR of bound viral RNA); type: cell-based, Green African Monkey; settings: MOI=5, 15° C., 60 m
# Method: FIG. 9 • Evaluation of SARS-CoV-2 binding on Vero E6 cells. Cells were incubated with virus (MOI=5) and treatments noted at 15° C. for 60 m. Subsequently, some cells were treated with trypsin to remove bound virus. All cells were washed extensively to remove unbound virus and cells were extracted for RNA. Viral load was determined and normalized for the host gene GAPDH. This is one of 3 different experiments yielding similar results.
# In an additional set of studies with Vero E6 cells, it was evaluated whether bemcentinib or PS liposomes blocked VT SARS-CoV-2 binding. Using an MOI of 5, SARS-CoV-2 was incubated at 15° C. for 60 m with Vero E6 cells in the presence of bemcentinib or PS liposomes. Phosphatidylcholine (PC) liposomes were incubated with the cells as a control for PS-mediated viral competition; trypsin was added after virus binding to some cells as a negative control. Cells were placed in Trizol and virus binding was assessed by qRT-PCR detection of viral RNA genomes as compared to the level of a housekeeping gen mRNA, GAPDH. […] Similar studies in Vero E6 cells and other more relevant lung cells will be performed to assess virus internalization following virus binding.
# MHV = test: MHV-infected C57BL/6 mice treated by gavage
# [16] = one high-risk patient on bemcentinib+erlotinib
smiles,measurement,setting,value
CC(C)C[C@H](NC(=O)[C@H]1O[C@@H]1C(=O)O)C(=O)NCCCCN=C(N)N [E64],hACE2-dependent pseudovirion infection (luminescence),[1],effectively blocked infection
same,WT SARS-CoV-2 infection of Vero E6 cells (viral load),SARS-CoV-2 [2],blocked infection
same,sensitivity of SARS-CoV-2 infection to inhibitor,SARS-CoV-2 [3],sensitive
"Nc1nc(Nc2ccc3c(c2)CC[C@@H](N2CCCC2)CC3)nn1-c1cc2c(nn1)-c1ccccc1CCC2 [bemcentinib, 1-(6,7-dihydro-5H-benzo[6,7]cyclohepta[1,2-c]pyridazin-3-yl)-N^3-((7-(S)-pyrrolidin-1-yl)-6,7,8,9-tetrahydro-5H-benzo[7]annulene-2-yl)-1H-1,2,4-triazole-3,5-diamine]",Laboratory TRAE (haem or chemistry),SARS-CoV-2 [4]; ACCORD-2,no TRAE haem or chemistry
same,QTcF prolongation,SARS-CoV-2 [4]; ACCORD-2,No reported QTcF prolongation
same,Mortality,"SARS-CoV-2 [4]; by D29, of 30 patients, SoC 6 of 30",1 patients
same,SARS-CoV-2 viral transcripts (RNAseq),SARS-CoV-2 [5],dramatically reduced
same,SARS-CoV-2 viral transcripts (RNAseq),SARS-CoV-2 [5]; listed as Bemcentinib,significantly reduced
same,SARS-CoV-2 infection of CalU3 cells (viral load),SARS-CoV-2 [6],did not inhibit
same,COVID-19 related deaths,SARS-CoV-2 [7],3
same,"MHV infection of mBMDM (MHV spike gene, qRT-PCR)","[8]; 1 μM, 24 h, p=0.034 in one-way ANOVA",significantly reducing infection
same,reduction of MHV virus load in ISG15 (KO) and USP18C61A/C61A mBMDM,"[8]; 1 μM, 24 h, trend to lower virus load",not statistically significant; also recorded: did not reach statistical significance
same,inhibitory effect on virus infection,"[8]; BMDM from ISG15-null and USP18C61A/C61A mice, compared with wild type",more variable and in general reduced
same,viral-induced syncytia formation,[8]; MHV-infected BMDM cultures,reduced
same,MHV virus load in WT mBMDM,"[8]; 1 μM, 24 h",significantly reduced MHV infection
same,MHV virus load in WT mBMDM,"[8]; 1 μM, 24 h, listed as Bemcentinib",reduces virus load
same,"MHV infection of mBMDM (MHV spike gene, qRT-PCR)","[8]; increasing concentrations, MOI 0.01, 24 h",inhibitory trend; also recorded: did inhibit MHV infection
same,"MHV infection of mBMDM (MHV spike gene, qRT-PCR)","[8]; increasing concentrations, MOI 0.01, 24 h, listed as Bemcentinib",inhibits MHV infection
same,coronavirus load in cells,"[8]; primary murine BMDM, MHV, 1 μM, 20 h following infection, preliminary",reduces coronavirus load
same,COVID-19 disease course,SARS-CoV-2 [9]; [16],7 days
same,course of COVID-19,SARS-CoV-2 [9]; [16],very mild
same,transmission to co-habiting partner,SARS-CoV-2 [9]; one patient on bemcentinib+erlotinib,lack of transmission
same,effect against Ebola infection in animal models,Ebola virus,some protective/therapeutic effect
same,SARS-CoV-2 virus load in Huh7 cells,SARS-CoV-2 [10],inhibited virus infection in a dose dependent manner
same,patients with salivary viral load below LLOQ (500 copies/mL),"SARS-CoV-2 [11]; absence of another antiviral, day 8 (8 of 12), SoC 37.5%",approximately 66%
same,patients with salivary viral load below LLOQ (500 copies/mL),"SARS-CoV-2 [11]; absence of another antiviral, day 11 (3 of 3), SoC 60%",100%
same,rate of viral clearance,"SARS-CoV-2 [11]; day 11, all patients, SoC 57%",100%
same,patients with salivary viral load below LLOQ (500 copies/mL),"SARS-CoV-2 [11]; presence of another antiviral (remdesivir or favipiravir), day 8 (9 of 11), SoC 54%",approximately 82%
same,patients with salivary viral load below LLOQ (500 copies/mL),"SARS-CoV-2 [11]; presence of another antiviral (remdesivir or favipiravir), day 11 (9 of 9), SoC 56%",100%
same,SARS-CoV-2 spike dependent pseudovirion infection of Vero E6 cells,[12],highly effective; also recorded: inhibited pseudovirus infection
same,SARS-CoV-2 infection in both cell types,SARS-CoV-2 [13],reported to inhibit
same,QTcF prolongation >501 msec,SARS-CoV-2 [14]; BGBC020,No QTcF prolongation
same,SUSAR,SARS-CoV-2 [14]; BGBC020,No SUSAR
same,"Time to NEWS2 score ≤2, Hazard ratio (95% CI)","SARS-CoV-2 [14]; BGBC020 interim results, secondary endpoint","1.10 (0.70, 1.73)"
same,Mortality,"SARS-CoV-2 [14]; by D29, of 58 patients, SoC 4 of 57",2 patients
same,"worsening by 1, 2 or 3 points on WHO scale","SARS-CoV-2 [14]; days 2, 8, 15 and 29, versus standard of care alone",lower proportion of individual patients experiencing worsening
same,SAE,"SARS-CoV-2 [14]; of 58 patients, SoC 4",5 patients
same,NEWS2 normalisation,"SARS-CoV-2 [14]; versus SoC, interim",favours bemcentinib arm within week 1
same,time to WHO OCS improvement or discharge (primary endpoint),"SARS-CoV-2 [14]; versus SoC, particularly with higher baseline CRP, interim",Favours the bemcentinib arm
same,SARS-CoV-2 binding to Vero E6 cells,SARS-CoV-2 [15],no effect
same,virus load in liver,"MHV; C57BL/6 mice, 50,000 iu MHV, versus pooled untreated and vehicle only groups, Student's t test",significantly reduced virus load
same,type I interferon responses (IFN related gene expression),"MHV; MHV-infected C57BL/6 mice, day 3, spleen and liver RNA",enhancing type I interferon responses
same,Sensitive to Bemcentinib,SARS-CoV-2 [3]; lung line 820,Yes
same,Sensitive to Bemcentinib,SARS-CoV-2 [3]; lung line CalU3,No
same,Sensitive to Bemcentinib,SARS-CoV-2 [3]; lung line H322,Yes
same,Sensitive to Bemcentinib,SARS-CoV-2 [3]; lung line H1650,Yes
same,Sensitive to Bemcentinib,SARS-CoV-2 [3]; lung line H1819,No
same,Sensitive to Bemcentinib,SARS-CoV-2 [3]; lung line H3255,No
same,Sensitive to Bemcentinib,SARS-CoV-2 [3]; lung line HCC1944,Mixed findings
same,Sensitive to Bemcentinib,SARS-CoV-2 [3]; lung line HCC2302,Yes
same,Sensitive to Bemcentinib,SARS-CoV-2 [3]; lung line HCC4207,Mixed findings
same,Sensitive to Bemcentinib,SARS-CoV-2 [3]; lung line HCC4256,No
same,Sensitive to Bemcentinib,SARS-CoV-2 [3]; lung line HSAEC13,Mixed findings
same,sensitivity of SARS-CoV-2 infection to inhibitor,SARS-CoV-2 [3],sensitive
CN(C)C(=O)COC(=O)Cc1ccc(OC(=O)c2ccc(NC(=N)N)cc2)cc1 [camostat],hACE2-dependent pseudovirion infection (luminescence),[1],"blocked infection, but to a lesser extent"
